The text below walks through data of patent US5593994A, “Prostaglandin synthase inhibitors” (The DuPont Merck Pharmaceutical Company, priority 1994, dated 1997).

One data set concerns the target T1, PGHS 2 (Homo sapiens, UniProt P35354).
T1 sequence (P35354 18-604): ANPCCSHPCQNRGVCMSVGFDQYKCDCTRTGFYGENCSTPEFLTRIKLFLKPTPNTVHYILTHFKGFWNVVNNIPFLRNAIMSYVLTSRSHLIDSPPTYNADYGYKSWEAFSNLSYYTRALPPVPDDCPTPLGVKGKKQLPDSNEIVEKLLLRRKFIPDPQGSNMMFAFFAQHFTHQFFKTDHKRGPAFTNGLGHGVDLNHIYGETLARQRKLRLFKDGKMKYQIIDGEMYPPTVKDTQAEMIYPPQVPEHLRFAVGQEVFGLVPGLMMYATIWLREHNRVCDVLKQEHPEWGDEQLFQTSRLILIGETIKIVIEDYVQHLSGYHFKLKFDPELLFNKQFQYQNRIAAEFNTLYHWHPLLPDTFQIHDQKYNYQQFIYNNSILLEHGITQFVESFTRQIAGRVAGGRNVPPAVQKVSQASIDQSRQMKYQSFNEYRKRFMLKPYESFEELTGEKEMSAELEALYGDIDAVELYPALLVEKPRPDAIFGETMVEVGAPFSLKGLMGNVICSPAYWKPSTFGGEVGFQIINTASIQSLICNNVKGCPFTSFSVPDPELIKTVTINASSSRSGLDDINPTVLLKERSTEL
As to the kind of experiment: Prostaglandin G/H Synthase Inhibition Assay (PGHS 2). The data set is classed as biochemical. The conditions noted are these: Table A; 100 μM arachidonate; 2 min preincubation; read-out: IC50 (PGHS2). On the procedure: Prostaglandin G/H synthase (cyclooxygenase, PGHS, Cox) activity was determined spectrophotometrically essentially as described by Kulmacz et al (reference). […] The assay was adapted to a 96 well microtiter dish format as described below. […] The reaction plate was immediately placed in a microtiter reader and readings made at 610 nm for 1.5 min at 3 sec intervals. Reaction rates were calculated from the slope of the linear portion of the absorbance versus time curve. Rates for control samples lacking added inhibitors were used to calculate the percent inhibition of each test compound.
The ratio PGHS 1 IC50 /PGHS 2 IC50 is referred to as the selectivity ratio.

Data set [1] has as its system PGE2 production in human monocytes. Briefly: Cellular Assay: inhibition of PGE2 production in LPS-stimulated human peripheral blood monocytes. The data set is classed as cell-based. The note with it: Monocyte, Table B, LPS 1 μg/ml, 17.5 hours. As for the experimental part: Human peripheral blood monocytes were obtained from normal donor blood by leukophoresis and isolated by elutriation. Monocytes were suspending in RPMI medium at 2×10^6 cells/ml, and plated at 200 μL/well in 96 well microtiter plates. Test compounds were added to the cells at appropriate concentration in DMSO such that the final DMSO concentration was 0.5% in the medium. Cells and compound or DMSO alone were incubated for 1 hour at 37° C. at which time cells were stimulated with 1 μg/ml LPS (Lipopolysaccharide, Salmonella typehrium, 5 mg/ml in 0.1% aqueous TEA) to induce PGHS 2 enzyme activity and prostaglandin production.

The test system of a further data set is prostaglandin synthesis. The note with it: in vivo; cited from earlier work.
Data set [2] relates to both isoenzymes (prostaglandin G/H synthase, Cox 1 and Cox 2). The conditions noted are these: cited from earlier work.
The subject of another data set is Cox-2. The note with it: cited from earlier work.

For the molecule `CS(=O)(=O)c1ccc(-c2ccccc2-c2ccccc2)cc1` [Example 1], the IC50 on PGHS 2 is 10 to 50 µM.

For the molecule `CS(=O)(=O)c1ccc(-c2ccccc2-c2ccc(F)cc2)cc1` [Example 2], the IC50 in data set [1] was in the range of 0.01 to 0.05 µM.

Consider `Cc1ccc(-c2ccccc2-c2ccc(S(C)(=O)=O)cc2)cc1` [Example 3], for which the IC50 on PGHS 2 was 10 to 50 µM.

Consider `COc1cccc(-c2ccccc2-c2ccc(S(C)(=O)=O)cc2)c1` [Example 4], for which the IC50 lay in the range of 10 to 50 µM at PGHS 2 and 0.051 to 0.1 µM in data set [1].

As to `COc1ccc(-c2ccccc2-c2ccc(S(C)(=O)=O)cc2)cc1` [Example 5], the IC50 on PGHS 2 is less than 10 µM; in data set [1] it was 0.01 to 0.05 µM.

Regarding `COc1ccc(-c2ccccc2-c2ccc(S(C)(=O)=O)cc2)cc1OC` [Example 6], the IC50 at PGHS 2 lay in the range of 50 to 300 µM.

For the molecule `CS(=O)(=O)c1ccc(-c2ccccc2-c2ccc(N)cc2)cc1` [Example 16], the IC50 on PGHS 2 is 50 to 300 µM.

Take `CN(C)c1ccc(-c2ccccc2-c2ccc(S(C)(=O)=O)cc2)cc1` [Example 20]: the figures for the IC50 (on PGHS 2; in data set [1]) were 10 to 50 µM and 0.01 to 0.05 µM, respectively.

On to `CS(=O)(=O)c1ccc(-c2ccccc2-c2ccc(C=O)cc2)cc1` [Example 41], for which the figures for the IC50 (at PGHS 2; in data set [1]) were 10 to 50 µM and 0.051 to 0.1 µM, respectively.

As to `COCc1ccc(-c2ccccc2-c2ccc(S(C)(=O)=O)cc2)cc1` [Example 42], on PGHS 2, the IC50 is less than 10 µM.

`CS(=O)(=O)c1ccc(-c2ccccc2-c2ccc(CO)cc2)cc1` [Example 43]: the IC50 at PGHS 2 is 50 to 300 µM.

For the molecule `CS(=O)(=O)c1ccc(-c2ccccc2-c2ccc3sccc3c2)cc1` [Example 47], the IC50 at PGHS 2 was in the range of 10 to 50 µM.

Regarding `CS(=O)(=O)c1ccc(-c2ccccc2-c2cc3ccccc3s2)cc1` [Example 48], the 50% inhibitory concentration (IC50) was less than 10 µM at PGHS 2 and 0.01 to 0.05 µM in data set [1].

With `CS(=O)(=O)c1ccc(-c2ccccc2-c2ccc3ccccc3c2)cc1` [Example 49], the IC50 was in the range of 10 to 50 µM on PGHS 2 and 0.051 to 0.1 µM in data set [1].

On to `COc1cccc2cc(-c3ccccc3-c3ccc(S(C)(=O)=O)cc3)ccc12` [Example 50], for which, on PGHS 2, the IC50 fell in the range of 10 to 50 µM.

Turning to `CS(=O)(=O)c1ccc(-c2ccccc2-c2cccnc2)cc1` [Example 51], the IC50 on PGHS 2 fell in the range of 50 to 300 µM.

For the molecule `CS(=O)(=O)c1ccc(-c2ccccc2-c2ccc3ccccc3n2)cc1` [Example 52], the IC50 on PGHS 2 is 50 to 300 µM.

Turning to `CS(=O)(=O)c1ccc(-c2ccccc2-c2cnc3ccccc3c2)cc1` [Example 53], the IC50 on PGHS 2 fell in the range of 50 to 300 µM.

On to `CS(=O)(=O)c1ccc(-c2ccccc2C2=CCCCC2)cc1` [Example 70, 1-Cyclohexene-2-(4'-methylsulfonylphenyl)benzene], for which, at PGHS 2, the IC50 is 10 to 50 µM.

Turning to `CS(=O)(=O)c1ccc(-c2ccccc2C2CCCCC2)cc1` [Example 71], at PGHS 2, the IC50 is 10 to 50 µM.

`CS(=O)(=O)c1ccc(-c2cc(N)ccc2-c2ccc(F)cc2)cc1` [Example 78]: the IC50 on PGHS 2 lay within 50 to 300 µM.

`CS(=O)(=O)c1ccc(-c2ccc(N)cc2-c2ccc(F)cc2)cc1` [Example 79]: at PGHS 2, the IC50 lay in the range of 50 to 300 µM.

In the case of `CS(=O)(=O)c1ccc(-c2cc([N+](=O)[O-])ccc2-c2ccc(F)cc2)cc1` [Example 80], the IC50 on PGHS 2 fell in the range of 10 to 50 µM.

Take `CS(=O)(=O)c1ccc(-c2ccc([N+](=O)[O-])cc2-c2ccc(F)cc2)cc1` [Example 81]: the IC50 at PGHS 2 fell in the range of 10 to 50 µM; in data set [1] it was 0.051 to 0.1 µM.

As for `CS(=O)(=O)c1ccc(-c2cc(O)ccc2-c2ccccc2)cc1` [Example 87, 3-(4'-methylsulfonylphenyl)-4-phenylphenol], the half-inhibitory concentration (IC50) at PGHS 2 fell in the range of 50 to 300 µM.

Take `CC(=O)c1ccc(-c2ccc(F)cc2)c(-c2ccc(S(C)(=O)=O)cc2)c1` [Example 93]: the IC50 on PGHS 2 lay within 10 to 50 µM.

Take `CS(=O)(=O)c1ccc(-c2ccccc2Oc2ccc(F)cc2)cc1` [Example 141]: the concentration for half-maximal inhibition (IC50) on PGHS 2 was less than 10 µM.

As to `CS(=O)(=O)c1ccc(-c2ccccc2OC2CCCCC2)cc1` [Example 143], the IC50 on PGHS 2 was less than 10 µM.

As for `CS(=O)(=O)c1ccc(-c2ccccc2Oc2ccccc2)cc1` [Example 144, 1-Phenoxy-2-(4'-methylsulfonylphenyl)benzene], the IC50 on PGHS 2 is less than 10 µM; in data set [1], 0.051 to 0.1 µM.

In the case of `CS(=O)(=O)c1ccc(-c2ccccc2OCc2ccccc2)cc1` [Example 145], the IC50 at PGHS 2 was 50 to 300 µM.

For `CS(=O)(=O)c1ccc(-c2ccccc2N2CCCCC2)cc1` [Example 151, 1-[2-(4-methylsulfonylphenyl)phenyl]piperidine], the IC50 on PGHS 2 lay in the range of 10 to 50 µM.

As for `CS(=O)(=O)c1ccc(-c2ccccc2C#Cc2ccccc2)cc1` [Example 152], the IC50 on PGHS 2 was less than 10 µM.

In the case of `CS(=O)(=O)c1ccc(-c2ccccc2-n2cccc2)cc1` [Example 153, 1-[2-(4'-methylsulfonylphenyl)phenyl]pyrrole], the IC50 at PGHS 2 fell in the range of 50 to 300 µM.

Regarding `CS(=O)(=O)c1ccc(-c2ccccc2-c2ccccc2)c(Cl)c1` [Example 305], the IC50 on PGHS 2 is 50 to 300 µM.

On to `NS(=O)(=O)c1ccc(-c2ccccc2-c2ccccc2)cc1` [Example 312, 2-(4-aminosulfonylphenyl)-1-biphenyl], for which the concentration for half-maximal inhibition (IC50) on PGHS 2 was less than 10 µM.

In the case of `CS(=O)(=O)c1ccc(-c2cc3ccccc3cc2-c2ccccc2)cc1` [Example 401, 2-(4-methylsulfonylphenyl)-3-phenylnaphthalene], the IC50 on PGHS 2 was in the range of 10 to 50 µM.

With `CS(=O)(=O)c1ccc(-c2cccnc2-c2ccc(F)cc2)cc1` [Example 411], the half-maximal inhibitory concentration (IC50) at PGHS 2 lay in the range of 10 to 50 µM.

On to `COc1ccc(-c2ncccc2-c2ccc(S(C)(=O)=O)cc2)cc1` [Example 412], for which the IC50 on PGHS 2 was 10 to 50 µM.

Regarding `CS(=O)(=O)Nc1ccc([N+](=O)[O-])cc1OC1CCCCC1` [NS-398], in the data set with prostaglandin synthesis, the gastric lesions result is “nor produce gastic lesions” and the gastric prostaglandin synthesis result is recorded as “did not block gastric prostaglandin synthesis”. Also, in data set [2], the mode of inhibition entry was “competitive toward both isoenzymes”. In the data set on Cox-2 (Cox-2, longer exposure), the time-dependence of inhibition entry is “selective time-dependence against Cox-2”. For the same molecule, in the data set with Cox-2 (reversed only following enzyme denaturation and organic extraction), the “tightness / reversibility of binding inhibition” value is “extremely tight binding inhibition”.

By IC50 is commonly meant the point on the concentration scale where inhibition reaches its midpoint.
